{
  "source": "patent US20030004172A1",
  "about": "“Fused pyrimidinone matrix metalloproteinase inhibitors” (priority 2001, published 2003)",
  "data": [
    {"molecular_target": "MMP-13CD (catalytic domain of collagenase-3) (Homo sapiens, UniProt P45452)", "assay": "Thiopeptolide substrate hydrolysis inhibition assay, MMP-13CD", "assay_type": "biochemical", "settings": "Table I; thiopeptolide substrate, HEPES pH 7.0, 22° C.; read-out: MMP-13CD IC50", "from_the_text": "Thiopeptolide substrates show virtually no decomposition or hydrolysis at or below neutral pH in the absence of a matrix metalloproteinase enzyme.", "units": {"IC50": "nM"}, "values": [
      {"compound": "COc1cc(CNC(=O)c2cc3c(=O)n(Cc4ccccc4)c(=O)n(C)c3s2)cc(OC)c1", "note": "[Example 333, 3-Benzyl-1-methyl-2,4-dioxo-1,2,3,4-tetrahydro-thieno[2,3-d]pyrimidine-6-carboxylic acid 3,5-dimethoxy-benzylamide]", "IC50": "> 100000"},
      {"compound": "COc1cccc(CNC(=O)c2cc3c(=O)n(Cc4ccc5nonc5c4)c(=O)n(C)c3s2)c1", "note": "[Example 296]", "IC50": 50.5},
      {"compound": "CC(C)COC(=O)c1cc2c(=O)n(Cc3ccccc3)c(=O)n(C)c2s1", "note": "[Example 188, 3-Benzyl-1-methyl-2,4-dioxo-1,2,3,4-tetrahydro-thieno[2,3-d]pyrimidine-6-carboxylic acid isobutyl ester]", "IC50": 19000},
      {"compound": "Cn1c(=O)n(Cc2ccccc2)c(=O)c2cc(C(=O)OCc3ccc(OCc4ccccc4)cc3)sc21", "note": "[Example 187, 3-Benzyl-1-methyl-2,4-dioxo-1,2,3,4-tetrahydro-thieno[2,3-d]pyrimidine-6-carboxylic acid 4-benzyloxy-benzyl ester]", "IC50": "> 100000"},
      {"compound": "3-Benzyl-1-methyl-2,4-dioxo-1,2,3,4-tetrahydro-thieno[2,3-d]pyrimidine-6-carboxylic acid 2,2,2-trifluoro-1-trifluoromethyl-ethyl ester [Example 168]", "IC50": 25000},
      {"compound": "COC(=O)C1(c2ccc(Cn3c(=O)c4cc(C(=O)NCc5cccc(OC)c5)sc4n(C)c3=O)cc2)CC1", "note": "[Example 92, 1-{4-[6-(3-Methoxy-benzylcarbamoyl)-1-methyl-2,4-dioxo-1,4-dihydro-2H-thieno[2,3-d]pyrimidin-3-ylmethyl]-phenyl}-cyclopropanecarboxylic acid methyl ester]", "IC50": 10.9},
      {"compound": "COc1cccc(CNC(=O)c2cc3c(=O)n(CCN)c(=O)n(C)c3s2)c1", "note": "[Example 252, 3-(2-Aminoethyl)-1-methyl-2,4-dioxo-1,2,3,4-tetrahydro-thieno[2,3-d]pyrimidine-6-carboxylic acid 3-methoxy-benzylamide]", "IC50": 24000},
      {"compound": "Cn1c(=O)n(CCS(=O)(=O)c2ccc(Cl)cc2)c(=O)c2cc(C(=O)OCc3ccccc3)sc21", "note": "[Example 144, 3-[2-(4-Chloro-benzenesulfonyl)-ethyl]-1-methyl-2,4-dioxo-1,2,3,4-tetrahydro-thieno[2,3-d]pyrimidine-6-carboxylic acid benzyl ester]", "IC50": 3},
      {"compound": "Cn1c(=O)n(Cc2ccccc2)c(=O)c2cc(C(=O)OCC3COc4ccccc4O3)sc21", "note": "(stereo not shown) [Example 151, 3-Benzyl-1-methyl-2,4-dioxo-1,2,3,4-tetrahydro-thieno[2,3-d]pyrimidine-6-carboxylic acid 2,3-dihydro-1,4-benzodioxin-2-ylmethyl ester]", "IC50": "> 100000"},
      {"compound": "COCN1C(=O)c2ccc(Cn3c(=O)c4cc(C(=O)NCc5ccc(OC)cc5)sc4n(C)c3=O)cc2S1(=O)=O", "note": "[Example 229, 3-(2-Methoxymethyl-1,1,3-trioxo-2,3-dihydro-1H-1l^6l-1,2-benzisothiazol-6-ylmethyl)-1-methyl-2,4-dioxo-1,2,3,4-tetrahydro-thieno[2,3-d]pyrimidine-6-carboxylic acid 4-methoxy-benzylamide]", "IC50": 680},
      {"compound": "Cn1c(=O)n(Cc2ccncc2)c(=O)c2cc(C(=O)OCc3ccccc3)sc21", "note": "[Example 308, 1-Methyl-2,4-dioxo-3-pyridin-4-ylmethyl-1,2,3,4-tetrahydro-thieno[2,3-d]pyrimidine-6-carboxylic acid benzyl ester]", "IC50": 7.15},
      {"compound": "Cn1c(=O)n(CCCCCCC#N)c(=O)c2cc(C(=O)OCc3ccccc3)sc21", "note": "[Example 107, 3-(6-Cyano-hexyl)-1-methyl-2,4-dioxo-1,2,3,4-tetrahydro-thieno[2,3-d]pyrimidine-6-carboxylic acid benzyl ester]", "IC50": 2400},
      {"compound": "CC(NC(=O)c1cc2c(=O)n(Cc3ccccc3)c(=O)n(C)c2s1)c1ccccc1", "note": "(stereo not shown) [Example 358, 3-Benzyl-1-methyl-2,4-dioxo-1,2,3,4-tetrahydro-thieno[2,3-d]pyrimidine-6-carboxylic acid (1-phenyl-ethyl)-amide]", "IC50": "> 100000"},
      {"compound": "Cn1c(=O)n(Cc2ccccc2)c(=O)c2cc(C(=O)OCc3ccccc3)oc21", "note": "[Example 97, 3-Benzyl-1-methyl-2,4-dioxo-1,2,3,4-tetrahydro-furo[2,3-d]pyrimidine-6-carboxylic acid benzyl ester]", "IC50": "> 100000"},
      {"compound": "COc1cccc(CNC(=O)c2cc3c(=O)n(Cc4ccc([N+](=O)[O-])nc4)c(=O)n(C)c3s2)c1", "note": "[Example 368, 1-Methyl-3-(6-nitro-pyridin-3-ylmethyl)-2,4-dioxo-1,2,3,4-tetrahydro-thieno[2,3-d]pyrimidine-6-carboxylic acid 3-methoxy-benzylamide]", "IC50": 735},
      {"compound": "Cn1c(=O)n(Cc2ccc(C(=O)O)cc2)c(=O)c2cc(C(=O)NCc3cccc(OC(F)F)c3)sc21", "note": "[Example 77, 4-[6-(3-Difluoromethoxy-benzylcarbamoyl)-1-methyl-2,4-dioxo-1,4-dihydro-2H-thieno[2,3-d]pyrimidin-3-ylmethyl]-benzoic acid]", "IC50": 6.55},
      {"compound": "CCC(C)n1c(=O)c2cc(C(=O)NCc3ccc(OC)cc3)sc2n(C)c1=O", "note": "(stereo not shown) [Example 262]", "IC50": 3400},
      {"compound": "Cn1c(=O)n(Cc2ccccc2)c(=O)c2cc(C(=O)OCc3ccc(Cl)c(Cl)c3)sc21", "note": "[Example 204, 3-Benzyl-1-methyl-2,4-dioxo-1,2,3,4-tetrahydro-thieno[2,3-d]pyrimidine-6-carboxylic acid 3,4-dichloro-benzyl ester]", "IC50": 72},
      {"compound": "COc1nc2sc(C(=O)OCc3ccccc3)cc2c(=O)n1Cc1ccccc1", "note": "[Example 88, 3-Benzyl-2-methoxy-4-oxo-3,4-dihydro-thieno[2,3-d]pyrimidine-6-carboxylic acid benzyl ester]", "IC50": 3150},
      {"compound": "Cn1c(=O)n(Cc2ccccc2)c(=O)c2cc(C(=O)NCCc3c[nH]c4ccccc34)sc21", "note": "[Example 351, 3-Benzyl-1-methyl-2,4-dioxo-1,2,3,4-tetrahydro-thieno[2,3-d]pyrimidine-6-carboxylic acid[2-(1H-indol-3-yl)-ethyl]-amide]", "IC50": 2000},
      {"compound": "COc1cccc(CNC(=O)c2cc3c(=O)n(Cc4ccc(C5(C(=O)OC(C)(C)C)CC5)cc4)c(=O)n(C)c3s2)c1", "note": "[Example 93, 1-{4-[6-(3-Methoxy-benzylcarbamoyl)-1-methyl-2,4-dioxo-1,4-dihydro-2H-thieno[2,3-d]pyrimidin-3-ylmethyl]-phenyl}-cyclopropanecarboxylic acid tert-butyl ester]", "IC50": 111},
      {"compound": "Cn1c(=O)n(Cc2ccc3ccccc3c2)c(=O)c2cc(C(=O)OCc3ccccc3)sc21", "note": "[Example 312, 1-Methyl-3-naphthalen-2-ylmethyl-2,4-dioxo-1,2,3,4-tetrahydro-thieno[2,3-d]pyrimidine-6-carboxylic acid benzyl ester]", "IC50": 27.5},
      {"compound": "COc1ccc(COC(=O)c2cc3c(=O)n(Cc4ccccc4)c(=O)n(C)c3s2)cc1", "note": "[Example 166, 3-Benzyl-1-methyl-2,4-dioxo-1,2,3,4-tetrahydro-thieno[2,3-d]pyrimidine-6-carboxylic acid 4-methoxy-benzyl ester]", "IC50": 920},
      {"compound": "CCC(C)Cn1c(=O)c2cc(C(=O)OCc3ccccc3)sc2n(C)c1=O", "note": "(stereo not shown) [Example 120, 1-Methyl-3-(2-methyl-butyl)-2,4-dioxo-1,2,3,4-tetrahydro-thieno[2,3-d]pyrimidine-6-carboxylic acid benzyl ester]", "IC50": 130},
      {"compound": "COc1cc(COC(=O)c2cc3c(=O)n(Cc4ccccc4)c(=O)n(C)c3s2)cc(OC)c1", "note": "[Example 183, 3-Benzyl-1-methyl-2,4-dioxo-1,2,3,4-tetrahydro-thieno[2,3-d]pyrimidine-6-carboxylic acid 3,5-dimethoxy-benzyl ester]", "IC50": 30000},
      {"compound": "COC(=O)c1ccc(Cn2c(=O)c3cc(C(=O)NCc4ccc(OC)cc4)sc3n(C)c2=O)cc1C", "note": "[Example 238, 4-[6-(4-Methoxy-benzylcarbamoyl)-1-methyl-2,4-dioxo-1,4-dihydro-2H-thieno[2,3-d]pyrimidin-3-ylmethyl]-2-methyl-benzoic acid methyl ester]", "IC50": 55.5},
      {"compound": "CCC(C)n1c(=O)c2cc(C(=O)NCc3cccc(OC)c3)sc2n(C)c1=O", "note": "(stereo not shown) [Example 288]", "IC50": 4200},
      {"compound": "CC(C)Cn1c(=O)c2cc(C(=O)OCc3ccccc3)sc2n(C)c1=O", "note": "[Example 135, 3-Isobutyl-1-methyl-2,4-dioxo-1,2,3,4-tetrahydro-thieno[2,3-d]pyrimidine-6-carboxylic acid benzyl ester]", "IC50": 86},
      {"compound": "Cn1c(=O)n(Cc2ccccc2)c(=O)c2cc(C(=O)NCc3ccccc3)sc21", "note": "[Example 11, 3-Benzyl-1-methyl-2,4-dioxo-1,2,3,4-tetrahydro-thieno[2,3-d]pyrimidine-6-carboxylic acid benzyl amide]", "IC50": 470},
      {"compound": "Cn1c(=O)n(Cc2ccccc2)c(=O)c2cc(C(=O)NCc3cccc(C(F)(F)F)c3)sc21", "note": "[Example 335, 3-Benzyl-1-methyl-2,4-dioxo-1,2,3,4-tetrahydro-thieno[2,3-d]pyrimidine-6-carboxylic acid 3-trifluoromethyl-benzylamide]", "IC50": 250},
      {"compound": "Cn1c(=O)n(Cc2ccc(-c3ccccc3)cc2)c(=O)c2cc(C(=O)OCc3ccccc3)sc21", "note": "[Example 100, 3-Biphenyl-4-ylmethyl-1-methyl-2,4-dioxo-1,2,3,4-tetrahydro-thieno[2,3-d]pyrimidine-6-carboxylic acid benzyl ester]", "IC50": 610},
      {"compound": "COc1cccc(CNC(=O)c2cc3c(=O)n(Cc4ccccc4)c(=O)n(C)c3s2)c1OC", "note": "[Example 334, 3-Benzyl-1-methyl-2,4-dioxo-1,2,3,4-tetrahydro-thieno[2,3-d]pyrimidine-6-carboxylic acid 2,3-dimethoxy-benzylamide]", "IC50": "> 100000"},
      {"compound": "COc1ccc(CNC(=O)c2cc3c(=O)n(CCNC(=O)c4ccccc4)c(=O)n(C)c3s2)cc1", "note": "[Example 272]", "IC50": 30000},
      {"compound": "Cn1c(=O)n(Cc2ccccc2)c(=O)c2cc(C(=O)OC3CCOCC3)sc21", "note": "[Example 167, 3-Benzyl-1-methyl-2,4-dioxo-1,2,3,4-tetrahydro-thieno[2,3-d]pyrimidine-6-carboxylic acid tetrahydro-pyran-4-yl ester]", "IC50": 26000}
    ]}
  ]
}
